# Laboratory results published in US10039772B2, “Methods and compositions for treating alcohol use disorders” (priority 2015, dated 2018).
# “Also recorded” adds a separate entry of the source.
# Legend:
# [1] = tested on: alcohol dependent and nondependent Wistar rats; test: Rat operant self-administration of alcohol (dependent and nondependent rats); format: in vivo; settings: for operant alcohol self-administration (lever press responding for alcohol): both dependent and nondependent rats, alcohol 10% w/v
# Protocol: Self-administration sessions were conducted in standard operant conditioning chambers (Med Associates). The rats were trained to self-administer alcohol as previously reported (13). First, the rats were given free-choice access to alcohol (10% w/v) and water for 1 day in their home cages to habituate them to the taste of alcohol. Second, the rats were subjected to an overnight session in the operant chambers with access to one lever (right lever) that delivered water in a fixed-ratio 1 (FR1) schedule where every lever press is reinforced with delivery of 0.1 ml of solution. Food was available ad libitum during this training. Third, after 1 day off, the rats were subjected to a 2 hour session (FR1) for 1 day and a 1 hour session (FR1) the next day, with one lever delivering alcohol (right lever). All of the subsequent sessions lasted 30 min, and two levers were available (left lever: water; right lever: alcohol) until stable levels of intake were reached. Upon completion of this procedure, the animals were allowed to self-administer a 10% (w/v) alcohol solution and water on an FR1 schedule of reinforcement.
# The rats were made dependent by chronic, intermittent exposure to alcohol vapors as previously described (13).
# Effect of carbenoxolone (CBX) on alcohol drinking in rats and mice.
# [2] = tested on: Wistar rats; settings: saccharin 0.004%; 0 and 40 mg/kg IP 90 min prior; 30 min session, FR1; listed as carbenoxolone
# [3] = tested on: C57BL/6J mice; test: Mouse drinking in the dark (DID) binge-like drinking; format: in vivo; settings: for ethanol intake in the DID paradigm: mice, 4 h drinking session, vs saline vehicle
# Protocol: The DID paradigm capitalizes on the circadian rhythm in drinking of mice utilizing a discrete time of exposure to ethanol to obtain pharmacologically significant ethanol drinking in a four-day procedure (114, 115). It is considered a preclinical model of binge alcohol drinking (116). Blood ethanol levels of C57BL/6J mice in DID are reliably over 100 mg % following the final drinking bout and produce behavioral intoxication in C57BL/6J mice (115). In the DID paradigm, the water bottle is replaced with a bottle containing 20% ethanol for 2 hours in the home cage 3 hours after lights go off. The design involves 3 daily drinking sessions of 2 hours and a fourth of 4 hours (114, 115).
# [4] = tested on: dependent and non-dependent C57BL/6J mice; test: Mouse limited access 2-bottle choice with chronic intermittent ethanol exposure (CIE); format: in vivo; settings: for ethanol intake in non-dependent and dependent mice (CIE paradigm): limited access 2-bottle choice, acute IP
# Protocol: Exposure of mice to repeated cycles of intermittent ethanol vapor in order to induce dependence increases ethanol drinking following withdrawal in a 2-bottle choice paradigm (112, 113). Thus, the CIE paradigm is used to test the effects of a drug on dependent and nondependent drinking in mice. Briefly, C57BL/6J mutant and WT mice had access to two bottles, one containing water and the other containing 15% (w/v) ethanol, for 2 hours starting 3 hours into the dark phase. Following acquisition of stable alcohol intake, half of the mice were subjected to repeated bouts of ethanol vapor exposure consisting of 16 hours per day for 4 days. Before each exposure to ethanol vapor, mice were IP injected with a solution of 20% v/v ethanol and 68.1 mg/kg pyrazole and immediately placed into ethanol vapor chambers (La Jolla Ethanol Research, CA). Tail blood sampling for blood ethanol level (BAL) determination was carried out daily. Target BALs were 150-200 mg %. Seventy-two hours following removal from the chambers, mice received access to water vs. 20% ethanol for 2 hours, and again over the next 4 days. The following week, mice were re-exposed to the ethanol vapor/control conditions and again tested for t2-bottle choice drinking for 5 days. Three vapor bouts followed by 2-bottle choice were carried out. Mice were weighed every 4-6 days throughout the 2-bottle choice sessions and daily during the vapor exposure bouts. Food and water were available ad libitum and mice were group housed except during the ethanol drinking sessions.
# [5] = in vivo; cited from earlier work
# [6] = biological target: Pannexin 1 (Homo sapiens, UniProt Q96RD7); settings: cited from earlier work
# Chain of Pannexin 1 (Q96RD7 whole entry, species assumed): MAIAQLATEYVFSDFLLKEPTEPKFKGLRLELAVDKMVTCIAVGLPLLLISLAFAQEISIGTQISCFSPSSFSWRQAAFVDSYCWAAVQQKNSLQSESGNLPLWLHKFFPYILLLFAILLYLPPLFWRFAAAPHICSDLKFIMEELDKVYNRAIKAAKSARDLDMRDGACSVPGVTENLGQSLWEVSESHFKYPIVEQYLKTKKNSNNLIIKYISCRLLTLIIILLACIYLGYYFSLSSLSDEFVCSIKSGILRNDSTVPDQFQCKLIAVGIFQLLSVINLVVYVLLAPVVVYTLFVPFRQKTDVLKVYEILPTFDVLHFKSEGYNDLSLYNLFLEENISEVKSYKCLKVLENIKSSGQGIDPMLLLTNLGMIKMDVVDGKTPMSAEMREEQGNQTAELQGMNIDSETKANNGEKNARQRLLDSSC
# [7] = tested on: inflammasome activation in neurons and astrocytes; settings: cited from earlier work
Compound,"operant alcohol self-administration (lever press responding for alcohol) ([1]; 0, 20, 40 mg/kg IP 90 min prior, 30 min session, FR1, listed as CBX)","operant alcohol self-administration (lever press responding for alcohol) ([1]; 0, 20, 40 mg/kg IP 90 min prior, 30 min session, FR1, listed as carbenoxolone)","water intake / water responding ([1]; dependent and nondependent rats, 0, 20, 40 mg/kg IP 90 min prior, 30 min session, FR1, listed as CBX)",operant self-administration of saccharin-sweetened water [2],time course of the effect on ethanol intake within the DID session ([3]; first 2 h vs whole 4 h session),ethanol intake in the DID paradigm ([3]; listed as CBX),ethanol intake in the DID paradigm ([3]; listed as Carbenoxolone),ethanol intake in non-dependent and dependent mice (CIE paradigm) ([4]; listed as CBX),ethanol intake in non-dependent and dependent mice (CIE paradigm) ([4]; listed as Carbenoxolone),"ethanol intake, dependent mice ([4]; limited access (2 h) 2-bottle choice after alcohol vapor, 40 mg/kg IP)","ethanol intake, non-dependent mice ([4]; limited access (2 h) 2-bottle choice, 20 and 40 mg/kg IP)",crossing of the blood brain barrier (BBB) [5],"alcohol self-administration, alcohol dependent rats ([1]; acute, systemic administration)",inhibition of Pannexin 1 [6],inflammasome activation in neurons and astrocytes [7]
"CC1(C(=O)O)CCC2(C)CCC3(C)C(=CC(=O)C4C5(C)CCC(OC(=O)CCC(=O)O)C(C)(C)C5CCC43C)C2C1 (stereo not drawn) [Number 3, 18β-glycyrrhetinic acid 3β-O-hemisuccinate]",decreases; also recorded: dose-dependently reduced,effectively and dose-dependently reduces,did not influence; also recorded: No significant effects,did not affect,more pronounced in the first 2 hours,reduce,reduced,reduces,reduced,reduced,reduced,does not effectively cross,–,–,–
"CCCN(CCC)S(=O)(=O)c1ccc(C(=O)O)cc1 [Number 257, Probenecid]",–,–,–,–,–,–,–,–,–,–,–,–,decreases,inhibits,prevents
